# Assay results taken from paper PMC9325861, “Mouse precision-cut liver slices as an ex vivo model to study drug-induced cholestasis” (Archives of Toxicology, 2022).
# Several values for one entry are separate records, joined by “and”; a condition that tells them apart may be missing. Equal entries are not always repeated. Structures can show the parent of a compound that is named as a salt.
# Experiments:
# rat PCLS = tested on: rat PCLS; design: method as in Starokozhko et al. [2017a]; settings: in the presence of BAs, ref Starokozhko et al. [2017a]; cited from earlier work
# mouse PCLS = assay: LC–MS/MS quantification of intracellular BAs in mouse PCLS; format: cell-based; settings: 48 h
# Description: In short, freshly prepared PCLS were transferred to 12-well plates (Greiner bio-one GmbH, Austria), one slice per well. […] The composition of the human-like BA mixture was based on serum concentrations in mice and humans, measured by […]. […] A Shimadzu Nexera X2 HPLC system with binary pumps was interfaced to a Thermo Scientific TSQ Quantum ultra-triple quadrupole mass spectrometer. The BA analysis was performed by liquid chromatography-tandem mass spectrometry (LC-MS/MS). Xcalibur software version 2.0.7 by Thermo Scientific was applied in the data processing. […] Phenomenex, Utrecht, the Netherlands) reversed-phase column was used to separate the BAs. The column and autosampler temperatures were set at 55 °C and 4 °C, respectively. The injection volume was 15 μL, and the flow was set at 0.3 mL/min. […] Intracellular BA concentrations in PCLS were measured by LC-MS/MS. Sample preparation for these measurements of intracellular BAs was performed as follows. […] Hereafter, three slices for each condition were pooled in a 1.5-mL test tube, snap-frozen in liquid nitrogen and stored at -80 °C until analysis. […] Samples were subsequently centrifuged for 15 min at 15 °C and 13,000 rpm. The supernatant was collected in a new tube, and the samples were concentrated using a Concentrator plus centrifuge (Eppendorf, Germany). […] The concentrations of CA, CDCA, DCA, LCA, UDCA, HDCA, […] and GCA were determined with MRM-based LC-MS as described above.
# Mrp2 (Abcc2) = assay: qRT-PCR gene expression in mouse PCLS: Mrp2; format: cell-based; settings: 48 h, in the presence and absence of BAs
# Description: (§1) In short, freshly prepared PCLS were transferred to 12-well plates (Greiner bio-one GmbH, Austria), one slice per well. Each well was filled with 1.3 mL pre-heated (37 ℃) and oxygenated (80%) Williams Medium E (1X, glutaMAX-1), which had been supplemented with 25 mM D-glucose monohydrate and 50 μg/ml Gentamicin (denoted as WME GG). […] The DMSO concentration used was below 0.5% in the incubation medium, equivalent to DMSO concentrations in solutions prepared by dilution of BA stock solutions with WME GG.
# Three PCLS incubated under a given condition were pooled in a 1.5-mL Rnase-free test tube, snap-frozen in liquid nitrogen, and stored at – 80 °C until analysis. RNA was isolated using a FavorPrep Tissue Total RNA Mini Kit (Favorgen, Vienna, Austria). Subsequently, the RNA yield was quantified using a NanoDrop One instrument (Thermo Fisher Scientific, Massachusetts, USA). Isolated RNA was reverse-transcribed to cDNA using a cDNA synthesis kit (Reverse Transcription System, Promega, Benelux B.V.). […]
# qRT-PCR was used to determine the relative mRNA expression levels for the mouse target genes: Bsep (Abcb11), Mrp2 (Abcc2), Mrp3 (Abcc3), Mrp4 (Abcc4), Ntcp (Slc10a1), Fxr (Nr1h4), Cyp7a1 (Cyp7a1), Collagen type 1a1 (Col1a1), Hsp47 (Serpinh1). […] Samples were measured in duplicates. […] Results are expressed as log2(fold change).
# [1] = tested on: Collagen type 1a1 (Col1a1); assay: qRT-PCR gene expression in mouse PCLS: Col1a1; format: cell-based; settings: 48 h
# Description: as §1
# (§2) Three PCLS incubated under a given condition were pooled in a 1.5-mL Rnase-free test tube, snap-frozen in liquid nitrogen, and stored at – 80 °C until analysis. RNA was isolated using a FavorPrep Tissue Total RNA Mini Kit (Favorgen, Vienna, Austria). Subsequently, the RNA yield was quantified using a NanoDrop One instrument (Thermo Fisher Scientific, Massachusetts, USA). Isolated RNA was reverse-transcribed to cDNA using a cDNA synthesis kit (Reverse Transcription System, Promega, Benelux B.V.). The cDNA samples were subsequently loaded in the thermal cycler with a program set to 22 °C for 10 min, 42 °C for 15 min, and 95 °C for 5 min.
# (§3) qRT-PCR was used to determine the relative mRNA expression levels for the mouse target genes: Bsep (Abcb11), Mrp2 (Abcc2), Mrp3 (Abcc3), Mrp4 (Abcc4), Ntcp (Slc10a1), Fxr (Nr1h4), Cyp7a1 (Cyp7a1), Collagen type 1a1 (Col1a1), Hsp47 (Serpinh1). Primer sequences of the genes tested are given in Supplementary Table S1. QRT-PCR was performed using, the dye, FastStart Universal SYBR Green Master Mix (Roche Diagnostics Netherlands B.V., Almere, the Netherlands) with the ViiA™ 7 Real-Time PCR System (Applied Biosystems, Bleiswijk, the Netherlands). The first cycle constituted 10 min at 95 °C, followed by 40 cycles of 15 s at 95 °C, 30 s at 60 °C and 30 s at 72 °C, followed by 1 cycle dissociation stage (15 s: 95 °C, 60 °C and 95 °C). A minimum of four mouse livers was used for each experiment, using three PCLS per condition. Samples were measured in duplicates. […] Results are expressed as log2(fold change).
# Ntcp (Slc10a1) = assay: qRT-PCR gene expression in mouse PCLS: Ntcp; format: cell-based; settings: 48 h, BAs present, highest concentration of CPZ, lowest concentration of GB
# Description: as §1, §2, §3
# [2] = with humanized BA mixture, CPZ 15 µM, CSA 1 µM, GB 25 µM
# [3] = with humanized BA mixture, CPZ 30 µM, CSA 6 µM, GB 65 µM
# [4] = without BA mixture, CPZ 15 µM, CSA 1 µM, GB 25 µM
# [5] = without BA mixture, CPZ 30 µM, CSA 6 µM, GB 65 µM
compound,measurement,setting,value
"CN(C)CCCN1c2ccccc2Sc2ccc(Cl)cc21 [CPZ, Chlorpromazine hydrochloride]",Concentration reaching severe toxicity,rat PCLS,36 µM
same,Effect on total intracellular BA concentration,mouse PCLS; in the absence of the BA mixture,increased the total intracellular concentration of BAs
same,Intracellular CA concentration,mouse PCLS; [2],259.9±32.0 pmol/mg protein
same,Intracellular CDCA concentration,mouse PCLS; [2],20.9±1.8 pmol/mg protein
same,Intracellular DCA concentration,mouse PCLS; [2],87.7±14.0 pmol/mg protein
same,Intracellular GCA concentration,mouse PCLS; [2],34.7±16.0 pmol/mg protein
same,Intracellular HDCA concentration,mouse PCLS; [2],4.0±2.5 pmol/mg protein
same,Intracellular LCA concentration,mouse PCLS; [2],3.4±1.3 pmol/mg protein
same,Intracellular TCA concentration,mouse PCLS; [2],244.1±42.8 pmol/mg protein
same,Intracellular TCDCA concentration,mouse PCLS; [2],10.1±0.2 pmol/mg protein
same,Intracellular TDCA concentration,mouse PCLS; [2],14.1±0.8 pmol/mg protein
same,Intracellular THDCA concentration,mouse PCLS; [2],9.4±1.4 pmol/mg protein
same,Intracellular UDCA concentration,mouse PCLS; [2],34.2±4.0 pmol/mg protein
same,Total intracellular concentration of 11 BAs,mouse PCLS; [2],722.5±95.4 pmol/mg protein
same,Intracellular CA concentration,mouse PCLS; [3],314.1±29.7 pmol/mg protein
same,Intracellular CDCA concentration,mouse PCLS; [3],41.3±6.4 pmol/mg protein
same,Intracellular DCA concentration,mouse PCLS; [3],297 pmol/mg protein and 297.9±25.1 pmol/mg protein
same,Intracellular GCA concentration,mouse PCLS; [3],26.1±3.5 pmol/mg protein
same,Intracellular HDCA concentration,mouse PCLS; [3],13.6±3.9 pmol/mg protein
same,Intracellular LCA concentration,mouse PCLS; [3],14.9±8.6 pmol/mg protein
same,Intracellular TCA concentration,mouse PCLS; [3],351.2±67.0 pmol/mg protein
same,Intracellular TCDCA concentration,mouse PCLS; [3],18.2±5.3 pmol/mg protein
same,Intracellular TDCA concentration,mouse PCLS; [3],44.3±5.1 pmol/mg protein
same,Intracellular THDCA concentration,mouse PCLS; [3],9.0±3.0 pmol/mg protein
same,Intracellular UDCA concentration,mouse PCLS; [3],46.3±3.0 pmol/mg protein
same,Effect on total intracellular BA concentration,"mouse PCLS; with humanized BA mixture, vs control",intracellular accumulation of BAs
same,Intracellular CA concentration,mouse PCLS; [4],0.3±0.0 pmol/mg protein
same,Intracellular CDCA concentration,mouse PCLS; [4],0.2±0.2 pmol/mg protein
same,Intracellular DCA concentration,mouse PCLS; [4],0.1±0.1 pmol/mg protein
same,Intracellular GCA concentration,mouse PCLS; [4],0.0±0.0 pmol/mg protein
same,Intracellular HDCA concentration,mouse PCLS; [4],0.0±0.0 pmol/mg protein
same,Intracellular LCA concentration,mouse PCLS; [4],0.2±0.1 pmol/mg protein
same,Intracellular TCA concentration,mouse PCLS; [4],0.8±0.1 pmol/mg protein
same,Intracellular TCDCA concentration,mouse PCLS; [4],14.4±1.7 pmol/mg protein
same,Intracellular TDCA concentration,mouse PCLS; [4],0.1±0.1 pmol/mg protein
same,Intracellular THDCA concentration,mouse PCLS; [4],2.4±0.3 pmol/mg protein
same,Intracellular UDCA concentration,mouse PCLS; [4],0.0±0.0 pmol/mg protein
same,Total intracellular concentration of 11 BAs,mouse PCLS; [4],18.7±0.0 pmol/mg protein
same,Intracellular CA concentration,mouse PCLS; [5],0.4±0.1 pmol/mg protein
same,Intracellular CDCA concentration,mouse PCLS; [5],0.4±0.2 pmol/mg protein
same,Intracellular DCA concentration,mouse PCLS; [5],0.1±0.1 pmol/mg protein
same,Intracellular GCA concentration,mouse PCLS; [5],0.0±0.0 pmol/mg protein
same,Intracellular HDCA concentration,mouse PCLS; [5],0.0±0.0 pmol/mg protein
same,Intracellular LCA concentration,mouse PCLS; [5],0.3±0.2 pmol/mg protein
same,Intracellular TCA concentration,mouse PCLS; [5],1.2±0.1 pmol/mg protein
same,Intracellular TCDCA concentration,mouse PCLS; [5],25.0±2.2 pmol/mg protein
same,Intracellular TDCA concentration,mouse PCLS; [5],0.1±0.1 pmol/mg protein
same,Intracellular THDCA concentration,mouse PCLS; [5],5.2±0.7 pmol/mg protein
same,Intracellular UDCA concentration,mouse PCLS; [5],0.0±0.0 pmol/mg protein
same,Total intracellular concentration of 11 BAs,mouse PCLS; [5],32.7±0.0 pmol/mg protein
same,Mrp2 gene expression,Mrp2 (Abcc2),reduces
same,Col1a1 gene expression,"[1]; in the absence of BAs, highest concentration of CPZ",significant increase
same,Col1a1 gene expression,"[1]; in the presence of BAs, highest concentration (30 µM CPZ)",significantly increased
same,Ntcp gene expression,Ntcp (Slc10a1),increase the expression of Ntcp significantly
